The text below walks through data of patent US4929623A, “Benzothiazole derivative” (Eisai Co., Ltd., priority 1987, dated 1990).

Molecules are shown by their SMILES.

In one experiment the test system is generation of leukotriene C4 (LT) from sliced lung of guinea pig. Kind of experiment: Effect on generation of leukotriene C4 from sliced lung of guinea pig (passively sensitized, ovalbumin challenge). The conditions noted are these: 3 μM test compound, 10 min preincubation, ovalbumin 10 μg/ml, 15 min, 37° C., 3 µM. The format is cell-based, guinea pig (male Hartley). As for the experimental part: Effect on generation of leukotriene C4 (LT) from sliced lung of guinea pig
An antiovalbumin guinea pig serum (1/10 dilution; 0.5 ml/100 g) was intravenously injected into a male Hartley guinea pig (300-350 g) for passive sensitization. 16 to 18 hr after the passive sensitization, the blood was removed by circulation of the Tyrode solution and the lung was extirpated. The extirpated lung was cut into small pieces having a size of 1 mm×1 mm×1 mm while cooling the lung with ice. The pieces were washed, and 150 mg of the pieces was suspended on 1.8 ml of the Tyrode solution, followed by incubation at 37° C. for 5 min. A 3 μM test compound (the compound of the present invention) solution was added thereto, followed by incubation for 10 min. An antigen solution (ovalbumin; a final concentration of 10 μg/ml) was added thereto, followed by incubation for additional 15 min. The mixture was filtered through a nylon mesh. 100 μl of the filtrate was subjected to determination of the amount of leukotriene C4 (LTC4) with an RzA kit.
The percentage leukotriene C4 (LTC4) liberation inhibition of each compound (indicated by compound No. used in the Examples which will be described later) is shown in Table 1.
Consider `Cc1c(O)c(C)c2sc(N)nc2c1C` [Compound 92], for which the “Percentage inhibition (leukotriene C4 (LTC4) liberation inhibition)” value stood at 64%.

Still in this experiment, the particulars now being: Cavia porcellus, 3 μM test compound, 10 min preincubation, ovalbumin 10 μg/ml, 15 min, 37° C., read-out: Percentage inhibition (leukotriene C4 (LTC4) liberation inhibition).
For the compound `Cc1c(O)c(C)c2sc(N)nc2c1C` [Compound 8, 6-hydroxy-2-amino-4,5,7-trimethylbenzothiazole], the inhibition at 3 µM worked out at 75%.
As to `Cc1c(O)c(C(C)C)c2sc(N)nc2c1C` [Compound 9], the inhibition at 3 µM turned out to be 36%.
Still for that read-out and setting: in the case of `CC(C)c1cc2nc(N)sc2c(C(C)C)c1O` [Compound 10] it was 78%.
`Nc1nc2cc(Br)c(O)c(Br)c2s1` [Compound 13]: the inhibition at 3 µM was found to be 35%.
Still for that read-out and setting: in the case of `Nc1nc2c(cc(O)c3ncccc32)s1` [Compound 17] it was 35%; in that of `Cc1ccc2sc(N)nc2c1O` [Compound 19], 36%.
As for `Nc1nc2c(O)c(Cl)ccc2s1` [Compound 20], the inhibition at 3 µM was found to be 33%.
In the case of `Nc1nc2c(O)c(Br)cc(Br)c2s1` [Compound 21], the inhibition at 3 µM came out at 48%.
In the case of `Cc1c(O)c(C(C)(C)C)cc2nc(N)sc12` [Compound 22], the inhibition at 3 µM came to 61%.
As to `Cc1c(O)c(C)c2sc(NCC(C)C)nc2c1C` [Compound 24], the inhibition at 3 µM came out at 95%.
Regarding `Cc1c(O)c(C)c2sc(NCC3CCCCC3)nc2c1C` [Compound 25], the inhibition at 3 µM turned out to be 36%.
Turning to `CCNc1nc2c(C)c(C)c(O)c(C)c2s1` [Compound 26], the inhibition at 3 µM came to 85%.
In the case of `Cc1c(O)c(C)c2sc(NCc3ccc(N(C)C)cc3)nc2c1C` [Compound 28], the inhibition at 3 µM was determined as 34%.
On to `Cc1c(O)c(C)c2sc(NCc3ccc(NS(C)(=O)=O)cc3)nc2c1C` [Compound 29], for which the inhibition at 3 µM is 43%.
As for `Cc1c(O)c(C)c2sc(NCc3ccc(S(C)(=O)=O)cc3)nc2c1C` [Compound 30], the inhibition at 3 µM was determined as 79%.
Consider `Cc1c(O)c(C)c2sc(NCc3ccc(S(=O)(=O)N(CCO)CCO)cc3)nc2c1C` [Compound 31], for which the inhibition at 3 µM came out at 62%.
On the same count and under the same terms, under `CCN(CC)S(=O)(=O)c1ccc(CNc2nc3c(C)c(C)c(O)c(C)c3s2)cc1` [Compound 32] stands 44%.
The same measure, in the same setting: in the case of `Cc1c(O)c(C)c2sc(NCc3ccc(S(=O)(=O)NCCO)cc3)nc2c1C` [Compound 33] it was 46%.
Same read-out and setting: under `Cc1c(O)c(C)c2sc(NCc3ccc(S(N)(=O)=O)cc3)nc2c1C` [Compound 34, 6-hydroxy-2-(4-sulfamoylbenzylamino)-4,5,7-trimethyl-benzothiazole] stands 70%; under `CCN(Cc1ccc(S(N)(=O)=O)cc1)c1nc2c(C)c(C)c(O)c(C)c2s1` [Compound 35], 68%.
As to `CC(C)c1cc2nc(NCc3ccc(S(N)(=O)=O)cc3)sc2c(C(C)C)c1O` [Compound 37], the inhibition at 3 µM is 39%.
Still for that read-out and setting: in the case of `CCN(Cc1ccc(S(N)(=O)=O)cc1)c1nc2cc(C(C)C)c(O)c(C(C)C)c2s1` [Compound 40] it was 32%.
Still for that read-out and setting: under `Cc1c(O)c(C)c2sc(NC(=O)c3cccnc3)nc2c1C` [Compound 51] stands 56%.
The same measure, in the same setting: in the case of `Cc1c(O)c(C)c2sc(NC(=O)C3CCCCC3)nc2c1C` [Compound 52] it was 62%.
Take `CC(=O)Nc1nc2c(C)c(C)c(O)c(C)c2s1` [Compound 53]: the inhibition at 3 µM is 69%.
Regarding `Cc1c(O)c(C)c2sc(NC(=O)c3ccccc3)nc2c1C` [Compound 54], the inhibition at 3 µM was determined as 58%.
Turning to `Cc1c(O)c(C)c2sc(NC(=O)CN(C)C)nc2c1C` [Compound 57], the inhibition at 3 µM worked out at 42%.
For `Cc1c(O)c(C)c2sc(NC(=O)N(C)C)nc2c1C` [Compound 58], the inhibition at 3 µM is 64%.
As to `CCOC(=O)Nc1nc2c(C)c(C)c(O)c(C)c2s1` [Compound 59], the inhibition at 3 µM was 71%.
`CCOC(=O)C(=O)Nc1nc2c(C)c(C)c(O)c(C)c2s1` [Compound 60]: the inhibition at 3 µM was determined as 36%.
Take `Cc1c(O)c(C)c2sc(NC(=O)C(=O)O)nc2c1C` [Compound 61]: the inhibition at 3 µM turned out to be 36%.
Consider `CCOC(=O)CCC(=O)Nc1nc2c(C)c(C)c(O)c(C)c2s1` [Compound 64], for which the inhibition at 3 µM turned out to be 32%.
For `CC(C)c1cc2nc(NC(=O)N(C)C)sc2c(C(C)C)c1O` [Compound 68], the inhibition at 3 µM stood at 70%.
As to `Cc1c(O)c(C)c2sc(NS(C)(=O)=O)nc2c1C` [Compound 69], the inhibition at 3 µM stood at 42%.
Consider `Cc1c(O)c(C)c2sc(NS(=O)(=O)C(C)C)nc2c1C` [Compound 70], for which the inhibition at 3 µM came out at 30%.
Consider `Cc1c(O)c(C)c2sc(NS(=O)(=O)c3ccccc3)nc2c1C` [Compound 71], for which the inhibition at 3 µM is 53%.
For the compound `CC(C)c1cc2nc(NS(=O)(=O)N(C)C)sc2c(C(C)C)c1O` [Compound 75], the inhibition at 3 µM amounted to 50%.
Regarding `CC(C)c1c(O)c(C(C)C)c2sc(N)nc2c1Cl` [Compound 76], the inhibition at 3 µM is 72%.
Consider `NS(=O)(=O)c1ccc(CNc2nc3cc(Br)c(O)c(Br)c3s2)cc1` [Compound 86, 6-hydroxy-2-(4-sulfamoylbenzylamino)-5,7-dibromobenzothiazole], for which the inhibition at 3 µM is 31%.
On the same count and under the same terms, in the case of `NS(=O)(=O)c1ccc(CNc2nc3c(O)c(Br)cc(Br)c3s2)cc1` [Compound 87] it was 32%.
Consider `CCOC(=O)CCCNc1nc2c(C)c(C)c(O)c(C)c2s1` [Compound 88], for which the inhibition at 3 µM turned out to be 79%.
Same read-out and setting: in the case of `Cc1c(O)c(C)c2sc(N3CCCC3=O)nc2c1C` [Compound 90] it was 41%; in that of `Cc1c(O)c(C)c2sc(NCCCC(=O)NC3CCCCC3)nc2c1C` [Compound 91], 53%.
`CNc1nc2c(C)c(C)c(O)c(C)c2s1` [Compound 93]: the inhibition at 3 µM was determined as 83%.
Consider `Cc1c(O)c(C)c2sc(N(C)C)nc2c1C` [Compound 94], for which the inhibition at 3 µM was found to be 79%.
On to `CCCCCNc1nc2c(C)c(C)c(O)c(C)c2s1` [Compound 95], for which the inhibition at 3 µM came to 72%.
In the case of `CC(C)=CCNc1nc2c(C)c(C)c(O)c(C)c2s1` [Compound 96], the inhibition at 3 µM was determined as 77%.
In the case of `Cc1c(O)c(C)c2sc(Nc3ccc(O)cc3)nc2c1C` [Compound 98], the inhibition at 3 µM was determined as 60%.
For `COc1ccc(Nc2nc3c(C)c(C)c(O)c(C)c3s2)cc1` [Compound 99], the inhibition at 3 µM was determined as 43%.
Turning to `Cc1c(O)c(C)c2sc(Nc3ccc(C(=O)O)cc3)nc2c1C` [Compound 101, 6-hydroxy-2-(4-carboxylphenylamino)-4,5,7-trimethylbenzothiazole], the inhibition at 3 µM was 37%.
`Cc1c(O)c(C)c2sc(Nc3ccc(S(N)(=O)=O)cc3)nc2c1C` [Compound 103]: the inhibition at 3 µM was 48%.
`Cc1c(O)c(C)c2sc(Nc3cc(Cl)c(O)c(Cl)c3)nc2c1C` [Compound 106]: the inhibition at 3 µM came to 49%.
For `Cc1c(O)c(C)c2sc(Nc3ccc(CCC(=O)O)cc3)nc2c1C` [Compound 108], the inhibition at 3 µM came to 30%.
Turning to `COc1c(O)c(C)c2sc(N)nc2c1OC` [Compound 110], the inhibition at 3 µM came to 41%.
As for `CC(C)c1cc2nc(Nc3ccc(C(=O)O)cc3)sc2c(C(C)C)c1O` [Compound 113, 6-hydroxy-2-(4-carboxylphenylamino)-5,7-diisopropylbenzothiazole], the inhibition at 3 µM was found to be 49%.
Still for that read-out and setting: in the case of `CC(C)c1cc2nc(Nc3ccccc3)sc2c(C(C)C)c1O` [Compound 115] it was 39%; in that of `CC(C)c1cc2nc(Nc3ccc(S(N)(=O)=O)cc3)sc2c(C(C)C)c1O` [Compound 122], 34%.
In the case of `CC(C)c1cc2nc(N(CCO)CCO)sc2c(C(C)C)c1O` [Compound 123], the inhibition at 3 µM worked out at 71%.
As for `CC(C)c1cc2nc(N3CCOCC3)sc2c(C(C)C)c1O` [Compound 124], the inhibition at 3 µM was found to be 72%.
As to `CC(C)c1cc2nc(NCc3ccccn3)sc2c(C(C)C)c1O` [Compound 126, 6-hydroxy-2-(2-pyridylmethylamino)-5,7-diisopropylbenzothiazole], the inhibition at 3 µM is 66%.
For `CC(C)c1cc2nc(N3CCC(O)CC3)sc2c(C(C)C)c1O` [Compound 128], the inhibition at 3 µM was 60%.
Regarding `Cc1c(O)c(C)c2sc(NCc3ccccc3)nc2c1C` [Compound 134], the inhibition at 3 µM was determined as 88%.
On to `Cc1c(O)c(C)c2sc(NCc3ccc(C(=O)O)cc3)nc2c1C` [Compound 135], for which the inhibition at 3 µM came out at 41%.
For `COC(=O)c1ccc(CNc2nc3c(C)c(C)c(O)c(C)c3s2)cc1` [Compound 136], the inhibition at 3 µM is 67%.
On to `Cc1c(O)c(C)c2sc(NCc3ccc(Cl)cc3Cl)nc2c1C` [Compound 137], for which the inhibition at 3 µM amounted to 40%.
Regarding `Cc1c(O)c(C)c2sc(NCc3ccc(C(N)=O)cc3)nc2c1C` [Compound 141], the inhibition at 3 µM stood at 53%.
